“And” between values parts separate entries of the source, which are not always exact repeats. Identical values can stand only once.
Conditions: Liquid, Transpiration method

CC(C)(C)[N+](=O)[O-] [2-methyl-2-nitropropane]
Conditions | vapor or sublimation pressure [kPa]
299.3 K | 2.054
303.2 K | 2.553
304.2 K | 2.705
308.2 K | 3.261
309.2 K | 3.527
313.2 K | 4.205
314.2 K | 4.41
318.2 K | 5.269
323.2 K | 6.65
328.1 K | 8.479

CC(C)[N+](=O)[O-] [2-nitropropane]
Conditions | vapor or sublimation pressure
274.7 K | 0.609 kPa
274.8 K | 0.604 kPa and 0.597 kPa
279.5 K | 0.799 kPa
279.6 K | 0.827 kPa
284.4 K | 1.092 kPa and 1.091 kPa
289.3 K | 1.459 kPa
294.2 K | 1.953 kPa
294.3 K | 1.9 kPa
299.2 K | 2.574 kPa
304.1 K | 3.344 kPa
304.2 K | 3.336 kPa
309.1 K | 4.299 kPa
314.1 K | 5.612 kPa and 5.563 kPa

Source: the NIST ThermoML archive (doi:10.1016/j.tca.2017.07.001)
